For this assay, the system named is B6C3F1 mice, B16 melanoma ip, median survival T/C. Put plainly: NCI In Vivo Anticancer Drug Screen. Data for tumor model B16 Melanoma (intraperitoneal) in B6C3F1 mice. To be noted: endpoint: median survival time, higher = longer survival. The method, boiled down: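 Readout: survival or tumor size in treated mice relative to vehicle controls (T/C). Model uses transplantable tumors grown in mice.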

Where [1] appears, read: dose: 3.12 mg/kg/injection, schedule: Q01DX009 (ip), vehicle: saline.
The mark [2] stands for this setting: dose: 6.25 mg/kg/injection, schedule: Q01DX009 (ip), vehicle: saline with Tween-80.
Setting [3] is: dose: 6.25 mg/kg/injection, schedule: Q01DX009 (ip), vehicle: saline.
Where [4] appears, read: dose: 12.5 mg/kg/injection, schedule: Q01DX009 (ip), vehicle: saline.
Where [5] appears, read: dose: 25.0 mg/kg/injection, schedule: Q01DX009 (ip), vehicle: saline with Tween-80.
The mark [6] stands for this setting: dose: 25.0 mg/kg/injection, schedule: Q01DX009 (ip), vehicle: saline.
The mark [7] stands for this setting: dose: 50.0 mg/kg/injection, schedule: Q01DX009 (ip), vehicle: saline.
Setting [8] is: dose: 100.0 mg/kg/injection, schedule: Q01DX009 (ip), vehicle: saline.

Molecules are shown by their SMILES. Values joined by “and” are separate entries in the source; they are usually repeats but may differ in a detail not shown here. Identical values can stand only once. Inconclusive results and toxic doses are left out.

These results are taken from PubChem BioAssay AID200 (DTP/NCI, 2004).

With `[I][Hg][CH2]C1COC([CH2][Hg][I])CO1` (configuration not stated), the T/C by setting is: (dose: 3.12 mg/kg/injection, schedule: Q01DX009 (ip), vehicle: saline with Tween-80) 93 % of control; under setting [1], 97 % of control; under setting [2], 109 % of control; under setting [3], 101 % of control; (dose: 12.5 mg/kg/injection, schedule: Q01DX009 (ip), vehicle: saline with Tween-80) 113 % of control; under setting [4], 87 % of control. The T/C under setting [5] is 119 % of control; the T/C under setting [6] is 100 % of control; the T/C (dose: 50.0 mg/kg/injection, schedule: Q01DX009 (ip), vehicle: saline with Tween-80) was 106 % of control; the T/C under setting [7] was 99 % of control; the T/C under setting [8] was 96 % of control.
Consider `O=C1c2cccc3cc([N+](=O)[O-])cc(c23)C(=O)N1CCN1CCCC1`, for which the T/C by setting is: under setting [2], 122 % of control; under setting [5], 108 % of control.
On to `CCC(C)Nc1ccc(N)cc1` (configuration not stated), for which the T/C (dose: 0.09 mg/kg/injection, schedule: Q01DX009 (ip), vehicle: saline + Tween-80 + alcohol) is 98 % of control; the T/C (dose: 0.18 mg/kg/injection, schedule: Q01DX009 (ip), vehicle: saline + Tween-80 + alcohol) is 94 % of control; the T/C (dose: 0.37 mg/kg/injection, schedule: Q01DX009 (ip), vehicle: saline + Tween-80 + alcohol) is 109 % of control; the T/C (dose: 0.75 mg/kg/injection, schedule: Q01DX009 (ip), vehicle: saline + Tween-80 + alcohol) was 109 % of control; the T/C (dose: 1.5 mg/kg/injection, schedule: Q01DX009 (ip), vehicle: Klucel (hydroxypropylcellulose) (HPC)) is 91 % of control; the T/C (dose: 1.5 mg/kg/injection, schedule: Q01DX009 (ip), vehicle: saline + Tween-80 + alcohol) is 113 % of control. For the same compound, the T/C by setting is: (dose: 3.0 mg/kg/injection, schedule: Q01DX009 (ip), vehicle: Klucel (hydroxypropylcellulose) (HPC)) 111 % of control; (dose: 3.0 mg/kg/injection, schedule: Q01DX009 (ip), vehicle: saline + Tween-80 + alcohol) 97 % of control; (dose: 6.0 mg/kg/injection, schedule: Q01DX009 (ip), vehicle: Klucel (hydroxypropylcellulose) (HPC)) 96 % of control; (dose: 12.0 mg/kg/injection, schedule: Q01DX009 (ip), vehicle: Klucel (hydroxypropylcellulose) (HPC)) 89 % of control.
Consider `C=C(C)C(=O)O[C@H]1CC2=C[C@@H](C[C@@]3(C)O[C@@H]3[C@H]3OC(=O)C(=C)[C@@H]31)OC2=O`, for which the T/C (dose: 3.75 mg/kg/injection, schedule: Q01DX009 (ip), vehicle: Klucel (hydroxypropylcellulose) (HPC)) is 101 % of control; the T/C (dose: 7.5 mg/kg/injection, schedule: Q01DX009 (ip), vehicle: Klucel (hydroxypropylcellulose) (HPC)) is 107 % of control; the T/C (dose: 15.0 mg/kg/injection, schedule: Q01DX009 (ip), vehicle: Klucel (hydroxypropylcellulose) (HPC)) is 103 % of control.
On to `[Cl][Pt+2][Cl].[NH-]CC1(C[NH-])CCC1`, for which the T/C by setting is: (dose: 0.19 mg/kg/injection, schedule: Q01DX009 (ip), vehicle: suspension in saline) 107 % of control; (dose: 0.39 mg/kg/injection, schedule: Q01DX009 (ip), vehicle: suspension in saline) 114 % of control; (dose: 0.78 mg/kg/injection, schedule: Q01DX009 (ip), vehicle: suspension in saline) 123 % of control; (dose: 1.56 mg/kg/injection, schedule: Q01DX009 (ip), vehicle: suspension in saline) 151 % of control; (dose: 3.12 mg/kg/injection, schedule: Q01DX009 (ip), vehicle: suspension in saline) 167 % of control.
As for `COc1cc(NS(C)(=O)=O)ccc1Nc1c2ccccc2nc2ccccc12`, the T/C is, setting by setting: (dose: 0.5 mg/kg/injection, schedule: Q01DX009 (ip), vehicle: other) 166 % of control and 168 % of control; (dose: 1.0 mg/kg/injection, schedule: Q01DX005 (ip), vehicle: other) 195 % of control; (dose: 1.0 mg/kg/injection, schedule: Q01DX005 (iv), vehicle: other) 101 % of control; (dose: 1.0 mg/kg/injection, schedule: Q01DX011 (ip), vehicle: saline with Tween-80) 175 % of control; (dose: 2.0 mg/kg/injection, schedule: Q01DX005 (ip), vehicle: clinical formulation) 177 % of control; (dose: 2.0 mg/kg/injection, schedule: Q01DX005 (iv), vehicle: clinical formulation) 99 % of control. The T/C is, setting by setting: (dose: 2.0 mg/kg/injection, schedule: Q01DX005 (oral), vehicle: other) 100 % of control; (dose: 2.0 mg/kg/injection, schedule: Q01DX009 (ip), vehicle: saline with Tween-80) 193 % of control; (dose: 2.0 mg/kg/injection, schedule: Q01DX011 (ip), vehicle: saline with Tween-80) 209 % of control; (dose: 4.0 mg/kg/injection, schedule: Q01DX005 (ip), vehicle: clinical formulation) 275 % of control; (dose: 4.0 mg/kg/injection, schedule: Q01DX005 (oral), vehicle: other) 104 % of control; (dose: 4.0 mg/kg/injection, schedule: Q01DX009 (ip), vehicle: saline with Tween-80) 253 % of control. Moreover, the T/C (dose: 4.0 mg/kg/injection, schedule: Q01DX009 (ip), vehicle: saline) was 187 % of control and 213 % of control and 222 % of control; the T/C (dose: 4.0 mg/kg/injection, schedule: Q01DX011 (ip), vehicle: saline with Tween-80) is 63 % of control; the T/C (dose: 4.0 mg/kg/injection, schedule: Q01DX011 (oral), vehicle: saline with Tween-80) is 98 % of control; the T/C (dose: 8.0 mg/kg/injection, schedule: Q01DX001 (iv), vehicle: clinical formulation) was 105 % of control; the T/C (dose: 8.0 mg/kg/injection, schedule: Q01DX005 (oral), vehicle: other) is 103 % of control; the T/C (dose: 8.0 mg/kg/injection, schedule: Q01DX009 (ip), vehicle: saline with Tween-80) was 283 % of control. In addition, the T/C is 92 % of control (dose: 8.0 mg/kg/injection, schedule: Q01DX011 (oral), vehicle: saline with Tween-80) and 112 % of control (dose: 16.0 mg/kg/injection, schedule: Q01DX001 (iv), vehicle: clinical formulation).
As for `COc1ccc2c3c1OC1C(=O)CCC4C(C2)N(C)CCC314` (configuration not stated), the T/C (dose: 31.0 mg/kg/injection, schedule: Q01DX009 (ip), vehicle: saline) is 99 % of control.
On to `N=C(N)CCCCCCCCC(=N)N`, for which the T/C is, setting by setting: (dose: 0.78 mg/kg/injection, schedule: Q01DX009 (ip), vehicle: saline) 99 % of control and 102 % of control; (dose: 1.56 mg/kg/injection, schedule: Q01DX009 (ip), vehicle: saline) 108 % of control and 112 % of control; under setting [1], 110 % of control; (dose: 3.13 mg/kg/injection, schedule: Q01DX009 (ip), vehicle: saline) 102 % of control; under setting [3], 118 % of control and 106 % of control; under setting [4], 112 % of control.
With `CC(=O)OC(OC(C)=O)c1ccc([N+](=O)[O-])c([N+](=O)[O-])c1`, the T/C (dose: 12.5 mg/kg/injection, schedule: Q01DX009 (ip), vehicle: Klucel (hydroxypropylcellulose) (HPC)) is 102 % of control; the T/C (dose: 25.0 mg/kg/injection, schedule: Q01DX009 (ip), vehicle: Klucel (hydroxypropylcellulose) (HPC)) is 99 % of control; the T/C (dose: 50.0 mg/kg/injection, schedule: Q01DX009 (ip), vehicle: Klucel (hydroxypropylcellulose) (HPC)) is 102 % of control.
As to `CCCC[C@H]1C(=O)O[C@H](C)[C@H](NC(=O)c2cccc(NC=O)c2O)C(=O)O[C@@H](C)[C@@H]1OC(=O)CC(C)C`, the T/C runs as follows: (dose: 0.12 mg/kg/injection, schedule: Q01DX009 (ip), vehicle: Klucel (hydroxypropylcellulose) (HPC)) 96 % of control; (dose: 0.25 mg/kg/injection, schedule: Q01DX009 (ip), vehicle: Klucel (hydroxypropylcellulose) (HPC)) 96 % of control; (dose: 0.5 mg/kg/injection, schedule: Q01DX009 (ip), vehicle: Klucel (hydroxypropylcellulose) (HPC)) 91 % of control and 98 % of control.
In the case of `CCC(C)n1ncc2c(N(C)C)ncnc21` (configuration not stated), the T/C was 98 % of control under setting [1], 95 % of control under setting [3] and 95 % of control under setting [4].
With `c1csc(C[N+]23CN4CN(CN(C4)C2)C3)c1`, the T/C is 100 % of control (dose: 12.0 mg/kg/injection, schedule: Q01DX009 (ip), vehicle: saline); 98 % of control under setting [6]; 98 % of control under setting [7]; 104 % of control under setting [8]; 106 % of control (dose: 200.0 mg/kg/injection, schedule: Q01DX009 (ip), vehicle: saline).
